# Source: article PMC6271338, “Synthesis and Cytotoxic Evaluation of Alkoxylated Chalcones” (Molecules, 2014)
# How the values were obtained:
# [1] = Cytotoxicity (SRB) against non-tumoral L02 cells; format: cell-based, human; conditions: human, L02 cells (non-tumoral human liver cell line); increasing concentrations up to 100 μM; mean ± SD of at least three independent experiments; read-out: Normal Human Cell Lines, CC50, L02
# Description: (§1) All compounds were also evaluated for their cytotoxic activity against two non-tumoral human cell lines named human mammary epithelial cell (HMLE) and L02 (a human liver cell line) in Table 2 and SI values between the CC50 in non-tumoral cell lines and IC50 in tumoral cells calculated.
# (§2) HepG2 and MCF7 cells were grown in the Eagle’s minimum essential medium with Earle’s balanced salts (MEM-EBSS) medium, HeLa, A549 and L02 cells were grown in Dulbecco’s Modified Eagle Media (DMEM), SW1990 cells were grown in RPMI-1640 medium, and HMLE cell were grown in DMEM/F-12 medium. […]
# (§3) Cells were seeded into 96-well plates (4000 cells/well) and incubated at 37 °C in a humidified 5% CO2 atmosphere. After 24 h, the cells were treated with different concentrations of the compounds for 48 h in triplicate to generate dose-response curves. Cell viability was evaluated using the sulforhodamine B (SRB) assay as previous described. […] Etoposide was used as the positive control.
# [2] = system: SW1990 cells; assay: In vitro anti-proliferative SRB assay, SW1990; format: cell-based, human; conditions: for IC50: Homo sapiens, SW1990, increasing concentrations up to 30 μM, mean ± SD of at least three independent experiments; for SI (CC50 HMLE/IC50 SW1990) / SI (CC50 L02/IC50 SW1990): selectivity index; for SI (CC50 HMLE/IC50 SW1990): HMLE vs SW1990; for SI (CC50 L02/IC50 SW1990): L02 vs SW1990
# Description: as §2
# (§4) Cells were seeded into 96-well plates (4000 cells/well) and incubated at 37 °C in a humidified 5% CO2 atmosphere. After 24 h, the cells were treated with different concentrations of the compounds for 48 h in triplicate to generate dose-response curves. Cell viability was evaluated using the sulforhodamine B (SRB) assay as previous described.
# [3] = Cytotoxicity (SRB) against non-tumoral HMLE cells; format: cell-based, human; conditions: human, HMLE cells (non-tumoral human mammary epithelial cells); increasing concentrations up to 100 μM; mean ± SD of at least three independent experiments; read-out: Normal Human Cell Lines, CC50, HMLE
# Description: as §1, §2, §3
# [4] = system: MCF-7 cells; assay: In vitro anti-proliferative SRB assay, MCF-7; format: cell-based, human; conditions: for IC50: Homo sapiens, MCF7, increasing concentrations up to 30 μM, mean ± SD of at least three independent experiments; for SI (CC50 HMLE/IC50 MCF7) / SI (CC50 L02/IC50 MCF7): selectivity index; for SI (CC50 HMLE/IC50 MCF7): HMLE vs MCF7; for SI (CC50 L02/IC50 MCF7): L02 vs MCF7
# Description: as §2, §4
# [5] = system: A549 cells; assay: In vitro anti-proliferative SRB assay, A549; format: cell-based, human; conditions: for IC50: Homo sapiens, A549, increasing concentrations up to 30 μM, mean ± SD of at least three independent experiments; for SI (CC50 HMLE/IC50 A549) / SI (CC50 L02/IC50 A549): selectivity index; for SI (CC50 HMLE/IC50 A549): HMLE vs A549; for SI (CC50 L02/IC50 A549): L02 vs A549
# Description: as §2, §4
# [6] = system: HepG2 cells; assay: In vitro anti-proliferative SRB assay, HepG2; format: cell-based, human; conditions: for IC50 / inhibition at 10 µM: Homo sapiens; for IC50: HepG2, increasing concentrations up to 30 μM, mean ± SD of at least three independent experiments; for SI (CC50 HMLE/IC50 HepG2) / SI (CC50 L02/IC50 HepG2): selectivity index; for SI (CC50 HMLE/IC50 HepG2): HMLE vs HepG2; for SI (CC50 L02/IC50 HepG2): L02 vs HepG2
# Description: as §2, §4
# [7] = system: HeLa cells; assay: In vitro anti-proliferative SRB assay, HeLa; format: cell-based, human; conditions: for IC50: Homo sapiens, HeLa, increasing concentrations up to 30 μM, mean ± SD of at least three independent experiments; for SI (CC50 HMLE/IC50 Hela) / SI (CC50 L02/IC50 Hela): selectivity index; for SI (CC50 HMLE/IC50 Hela): HMLE vs HeLa; for SI (CC50 L02/IC50 Hela): L02 vs HeLa
# Description: as §2, §4
# [8] = HepG2 cells, 10 μM, SRB assay, mean ± SD of three independent experiments
compound,measurement,setting,value
"COc1cc([C@@H]2c3cc4c(cc3[C@@H](O[C@@H]3O[C@@H]5CO[C@@H](C)O[C@H]5[C@H](O)[C@H]3O)[C@H]3COC(=O)[C@H]23)OCO4)cc(OC)c1O [Etoposide, reference compound]",CC50 at 48 h,[1],> 100 µM
same,IC50,[2],29.3 ± 1.73 µM
same,CC50 at 48 h,[3],6.42 ± 0.39 µM
same,IC50,[4],20.6 ± 0.34 µM
same,IC50,[5],3.23 ± 0.28 µM
same,IC50,[6],5.11 ± 0.45 µM
same,inhibition at 10 µM,[6]; [8],63.9 ± 0.1%
same,IC50,[7],3.96 ± 0.17 µM
"COc1ccc(C(=O)/C=C/c2ccccc2)cc1 [a1, (E)-1-(4-Methoxyphenyl)-3-phenylprop-2-en-1-one]",inhibition at 10 µM,[6]; [8],42.4 ± 2%
"COc1ccc(C(=O)/C=C/c2ccc(Br)cc2)cc1 [a2, (E)-1-(4-Methoxyphenyl)-3-(4-bromophenyl)prop-2-en-1-one]",melting point,,153.7 to 155.1 °C
same,inhibition at 10 µM,[6]; [8],37.6 ± 4.4%
"COc1ccc(C(=O)/C=C/c2ccc(Br)cc2F)cc1 [a3, (E)-1-(4-Methoxyphenyl)-3-(4-bromo-2-fluorophenyl)prop-2-en-1-one]",melting point,,122.2 to 123.6 °C
same,inhibition at 10 µM,[6]; [8],41.8 ± 5.9%
"COc1ccc(C(=O)/C=C/c2ccc(F)cc2Br)cc1 [a4, (E)-1-(4-Methoxyphenyl)-3-(2-bromo-4-fluorophenyl)prop-2-en-1-one]",melting point,,98.7 to 101 °C
same,inhibition at 10 µM,[6]; [8],41.2 ± 4.6%
"COc1ccc(C(=O)/C=C/c2ccc(Br)cc2Cl)cc1 [a5, (E)-1-(4-Methoxyphenyl)-3-(4-bromo-2-chlorophenyl)prop-2-en-1-one]",melting point,,145.3 to 146.4 °C
same,inhibition at 10 µM,[6]; [8],9 ± 5.6%
"COc1ccc(C(=O)/C=C/c2ccc([N+](=O)[O-])cc2)cc1 [a6, (E)-1-(4-Methoxyphenyl)-3-(4-nitrophenyl)prop-2-en-1-one]",inhibition at 10 µM,[6]; [8],9.8 ± 5%
"COc1ccc(C(=O)/C=C/c2ccccc2OC)cc1 [a8, (E)-1-(4-Methoxyphenyl)-3-(2-methoxyphenyl)prop-2-en-1-one]",melting point,,43.2 to 45.5 °C
same,inhibition at 10 µM,[6]; [8],61.4 ± 3.4%
"COc1ccc(C(=O)/C=C/c2cccc(OC)c2)cc1 [a9, (E)-1-(4-Methoxyphenyl)-3-(3-methoxyphenyl)prop-2-en-1-one]",melting point,,95.7 to 97 °C
same,inhibition at 10 µM,[6]; [8],59 ± 2.9%
"COc1ccc(/C=C/C(=O)c2ccc(OC)cc2)cc1 [a10, (E)-1,3-bis(4-Methoxyphenyl)prop-2-en-1-one]",inhibition at 10 µM,[6]; [8],27.7 ± 17.7%
"CCOc1ccc(/C=C/C(=O)c2ccc(OC)cc2)cc1 [a11, (E)-1-(4-Methoxyphenyl)-3-(4-ethoxyphenyl)prop-2-en-1-one]",melting point,,106.3 to 107.9 °C
same,inhibition at 10 µM,[6]; [8],13.1 ± 8.4%
"COc1ccc(C(=O)/C=C/c2cccc(OC)c2OC)cc1 [a12, (E)-1-(4-Methoxyphenyl)-3-(2,3-dimethoxyphenyl)prop-2-en-1-one]",inhibition at 10 µM,[6]; [8],66.3 ± 4.2%
"COc1ccc(C(=O)/C=C/c2cc(OC)ccc2OC)cc1 [a13, (E)-1-(4-methoxyphenyl)-3-(2,5-dimethoxyphenyl)prop-2-en-1-one]",melting point,,54.7 to 56.3 °C
same,inhibition at 10 µM,[6]; [8],77 ± 2.2%
"COc1ccc(C(=O)/C=C/c2c(OC)cccc2OC)cc1 [a14, (E)-1-(4-Methoxyphenyl)-3-(2,6-dimethoxyphenyl)prop-2-en-1-one]",melting point,,123.7 to 125.7 °C
same,inhibition at 10 µM,[6]; [8],78.1 ± 4.7%
"COc1ccc(C(=O)/C=C/c2ccc(OC)c(OC)c2)cc1 [a15, (E)-1-(4-Methoxyphenyl)-3-(3,4-dimethoxyphenyl)prop-2-en-1-one]",inhibition at 10 µM,[6]; [8],65 ± 17.6%
"COc1ccc(C(=O)/C=C/c2cc(OC)cc(OC)c2)cc1 [a16, (E)-1-(4-Methoxyphenyl)-3-(3,5-dimethoxyphenyl)prop-2-en-1-one]",CC50 at 48 h,[1],8.87 ± 1.83 µM
same,IC50,[2],17.8 ± 0.07 µM
same,SI (CC50 HMLE/IC50 SW1990),[2],0.2
same,SI (CC50 L02/IC50 SW1990),[2],0.5
same,CC50 at 48 h,[3],3.28 ± 0.31 µM
same,IC50,[4],23.1 ± 0.79 µM
same,SI (CC50 HMLE/IC50 MCF7),[4],0.1
same,SI (CC50 L02/IC50 MCF7),[4],0.4
same,IC50,[5],21.2 ± 0.55 µM
same,SI (CC50 HMLE/IC50 A549),[5],0.2
same,SI (CC50 L02/IC50 A549),[5],0.4
same,melting point,,87.6 to 89.1 °C
same,IC50,[6],9.2 ± 0.31 µM
same,inhibition at 10 µM,[6]; [8],70.6 ± 2%
same,SI (CC50 HMLE/IC50 HepG2),[6],0.4
same,SI (CC50 L02/IC50 HepG2),[6],1.0
same,IC50,[7],12.4 ± 0.34 µM
same,SI (CC50 HMLE/IC50 Hela),[7],0.3
same,SI (CC50 L02/IC50 Hela),[7],0.7
"COc1ccc(C(=O)/C=C/c2ccc(OC)c(OCc3ccccc3)c2)cc1 [a17, (E)-1-(4-Methoxyphenyl)-3-(3-(benzyloxy)-4-methoxyphenyl)prop-2-en-1-one]",melting point,,115 to 118.2 °C
same,inhibition at 10 µM,[6]; [8],44.1 ± 6.2%
"COc1ccc(C(=O)/C=C/c2ccc(OC)c(OC)c2OC)cc1 [a18, (E)-1-(4-Methoxyphenyl)-3-(2,3,4-trimethoxyphenyl)prop-2-en-1-one]",melting point,,94.4 to 96.5 °C
same,inhibition at 10 µM,[6]; [8],31.8 ± 7.3%
"COc1ccc(C(=O)/C=C/c2cc(OC)c(OC)cc2OC)cc1 [a19, (E)-1-(4-Methoxyphenyl)-3-(2,4,5-trimethoxyphenyl)prop-2-en-1-one]",melting point,,122.1 to 123.7 °C
same,inhibition at 10 µM,[6]; [8],38.1 ± 10.3%
"COc1cccc(OC)c1/C=C/C(=O)c1ccccc1 [b1, (E)-1-Phenyl-3-(2,6-dimethoxyphenyl)prop-2-en-1-one]",IC50,[2],> 30 µM
same,SI (CC50 HMLE/IC50 SW1990),[2],<0.3
same,SI (CC50 L02/IC50 SW1990),[2],<1.1
same,CC50 at 48 h,[3],9.47 ± 0.39 µM
same,IC50,[4],28.18 ± 0.04 µM
same,SI (CC50 HMLE/IC50 MCF7),[4],0.3
same,SI (CC50 L02/IC50 MCF7),[4],1.2
same,IC50,[5],> 30 µM
same,SI (CC50 HMLE/IC50 A549),[5],<0.3
same,SI (CC50 L02/IC50 A549),[5],<1.1
same,melting point,,52.6 to 54.7 °C
same,IC50,[6],21 ± 1.75 µM
same,SI (CC50 HMLE/IC50 HepG2),[6],0.5
same,SI (CC50 L02/IC50 HepG2),[6],1.6
same,IC50,[7],> 30 µM
same,SI (CC50 HMLE/IC50 Hela),[7],<0.3
same,SI (CC50 L02/IC50 Hela),[7],<1.1
"COc1cccc(OC)c1/C=C/C(=O)c1ccccc1C [b2, (E)-1-(2-Methylphenyl)-3-(2,6-dimethoxyphenyl)prop-2-en-1-one]",CC50 at 48 h,[1],35.9 ± 3.4 µM
same,IC50,[2],> 30 µM
same,SI (CC50 HMLE/IC50 SW1990),[2],<0.5
same,SI (CC50 L02/IC50 SW1990),[2],<1.2
same,CC50 at 48 h,[3],15 ± 0.78 µM
same,IC50,[4],19.1 ± 2.11 µM
same,SI (CC50 HMLE/IC50 MCF7),[4],0.8
same,SI (CC50 L02/IC50 MCF7),[4],1.9
same,IC50,[5],25.5 ± 4.14 µM
same,SI (CC50 HMLE/IC50 A549),[5],0.6
same,SI (CC50 L02/IC50 A549),[5],1.4
same,melting point,,79.8 to 81.4 °C
same,IC50,[6],14.1 ± 1.84 µM
same,SI (CC50 HMLE/IC50 HepG2),[6],1.1
same,SI (CC50 L02/IC50 HepG2),[6],2.5
same,IC50,[7],18.4 ± 0.75 µM
same,SI (CC50 HMLE/IC50 Hela),[7],0.8
same,SI (CC50 L02/IC50 Hela),[7],1.9
(E)-1-(4-Methoxyphenyl)-3-(4-carbonylphenyl)prop-2-en-1-one [a7],Inhibition (%),[6]; [8],32.7 ± 3.0%
